In patent US20260034170A1, “NITRIC OXIDE TOPICAL APPLICATION APPARATUS AND METHODS” (NOxy Health Products, Inc., priority 2016, published 2026):

Tested on: bacteria on a surface, such as a person's skin
Assay: dose of nitric oxide required to kill bacteria on a surface

[N]=O [nitric oxide]
dose required to kill bacteria on a surface: ≥ 320 ppm
